Holding throughout (assay type): functional
One experiment deals with SH-SY5Y. The experiment in a line: Compound was tested for antagonism of carbaprostacyclin-stimulated cAMP accumulation in human SH-SY5Y neuroblastoma cells. (In general: Changes in cAMP serve as a functional read-out for many G protein-coupled receptors.)
Experiment [1] concerns Rattus norvegicus. The experiment in a line: Effective dose was determined for analgesic activity in rat on i.p. administration using acetic acid induced writhing assay. Particulars: ip. In general terms: An intraperitoneal irritant provokes the stretching counted in writhing tests.
Experiment [2] concerns Rattus norvegicus. The experiment in a line: Effective dose was determined against carrageenan-induced paw hyperalgesia in the rat on peroral administration. Particulars: po.
Experiment [3] relates to Rattus norvegicus. The experiment in a line: Effective dose was determined against carrageenan-induced paw hyperalgesia in the rat on i.v. administration. The conditions noted are these: iv. For orientation: Carrageenan injected into the paw causes an acute inflammation.

The compound `CCOc1ccc(Cc2ccc(NC3=NCCN3)cc2)cc1` returned a pKB in the experiment with SH-SY5Y of 8.2.

With `COc1ccc(Cc2ccc(NC3=NCCN3)cc2)cc1`, the pKB in the experiment with SH-SY5Y came to 7.7.

For `c1cc(NC2=NCCN2)ccc1Cc1ccc(OC2CCCC2)cc1`, the pKB in the experiment on SH-SY5Y amounted to 8.9.

Compound `COCCOc1ccc(Cc2ccc(NC3=NCCN3)cc2)cc1` gave a pKB in the experiment with SH-SY5Y of 8.

For `c1cc(NC2=NCCN2)ccc1Cc1ccc(OC2CCCCC2)cc1`, the negative logarithm of the KB (pKB) in the experiment with SH-SY5Y is 8.6.

The compound `c1cc(NC2=NCCN2)ccc1Cc1ccc(OCC2CCOCC2)cc1` showed a pKB in the experiment on SH-SY5Y of 8.5.

Consider `CCCCCCOc1ccc(Cc2ccc(NC3=NCCN3)cc2)cc1`, for which the pKB in the experiment with SH-SY5Y was determined as 8.2.

In the case of `CCCOc1ccc(Cc2ccc(NC3=NCCN3)cc2)cc1`, the negative-log KB (pKB) in the experiment on SH-SY5Y amounted to 8.8.

The compound `CCCCOc1ccc(Cc2ccc(NC3=NCCN3)cc2)cc1` displayed a negative logarithm of the KB (pKB) in the experiment on SH-SY5Y of 9.

Take `c1cc(NC2=NCCN2)ccc1Cc1ccc(OC2CCOCC2)cc1`: in the experiment with SH-SY5Y, the pKB worked out at 8.4.

Consider `FC(F)(F)COc1ccc(Cc2ccc(NC3=NCCN3)cc2)cc1`, for which the pKB in the experiment on SH-SY5Y was 8.7.

In the case of `CC(C)Oc1ccc(Cc2ccc(NC3=NCCN3)cc2)cc1`, the ED50 with Rattus norvegicus [1] worked out at 4 mg/kg; in the experiment on Rattus norvegicus [2], 18 mg/kg; in the experiment with Rattus norvegicus [3], 2.8 mg/kg. The pKB with SH-SY5Y stood at 8.8.

In the experiment on SH-SY5Y, `c1ccc(COc2ccc(Cc3ccc(NC4=NCCN4)cc3)cc2)cc1` had a negative logarithm of the KB (pKB) of 7.7.

Turning to `OCCOc1ccc(Cc2ccc(NC3=NCCN3)cc2)cc1`, the pKB with SH-SY5Y is 8.

Regarding `CC(C)COc1ccc(Cc2ccc(NC3=NCCN3)cc2)cc1`, the negative logarithm of the KB (pKB) in the experiment on SH-SY5Y is on record as 8.8.

For orientation: pKB means the negative decadic logarithm of the KB, by convention in mol/L. Read a low pKB as a large KB. As usually defined, the ED50 is the midpoint of the dose-response relation.

Source of the values: ChEMBL document CHEMBL1146672, “Discovery and SAR development of 2-(phenylamino) imidazolines as prostacyclin receptor antagonists [corrected]” (Bioorg Med Chem Lett, 2004).
